# Assay results from ChEMBL document CHEMBL3822457, “Synthesis and biological analysis of novel glycoside derivatives of l-AEP, as targeted antibacterial agents” (2016).
# The source made the active and inactive calls. The rule behind the calls is not given here.
# Legend:
# [1] = system: Salmonella enterica subsp. enterica serovar Virchow; experiment: Antibacterial activity against Salmonella enterica serovar Virchow ATCC 5742 at 2 mg/ml in presence of DM1 at pH 7.2 in absence of IPTG; assay type: functional
# Klebsiella aerogenes [2] = experiment: Antibacterial activity against Enterobacter aerogenes ATCC 13048 at 2 mg/ml in presence of DM1 at pH 7.2 in absence of IPTG; assay type: functional, organism-based
# Salmonella typhimurium [3] = experiment: Antibacterial activity against Salmonella enterica serovar Typhimurium ATCC 14028 at 2 mg/ml in presence of DM1 and IPTG at pH 7.2; assay type: functional, organism-based; conditions: Salmonella enterica subsp. enterica serovar Typhimurium
# Cronobacter sakazakii [4] = experiment: Antibacterial activity against Cronobacter sakazakii ATCC 29544 at 2 mg/ml in presence of DM1 at pH 7.2 in absence of IPTG; assay type: functional
# Klebsiella pneumoniae [5] = experiment: Antibacterial activity against Klebsiella pneumoniae ATCC 13882 at 2 mg/ml in presence of DM1 at pH 7.2 in absence of IPTG; assay type: functional, organism-based
# Cronobacter sakazakii [6] = experiment: Antibacterial activity against Cronobacter sakazakii ATCC 29544 at 2 mg/ml in presence of DM1 and IPTG at pH 7.2; assay type: functional
# Klebsiella pneumoniae [7] = experiment: Antibacterial activity against Klebsiella pneumoniae ATCC 13882 at 2 mg/ml in presence of DM1 and IPTG at pH 7.2; assay type: functional, organism-based
# Klebsiella aerogenes [8] = experiment: Antibacterial activity against Enterobacter aerogenes ATCC 13048 at 2 mg/ml in presence of DM1 and IPTG at pH 7.2; assay type: functional, organism-based
# [9] = system: Salmonella enterica subsp. enterica serovar Virchow; experiment: Antibacterial activity against Salmonella enterica serovar Virchow ATCC 5742 at 2 mg/ml in presence of DM1 and IPTG at pH 7.2; assay type: functional
# Salmonella typhimurium [10] = experiment: Antibacterial activity against Salmonella enterica serovar Typhimurium ATCC 14028 at 2 mg/ml in presence of DM1 at pH 7.2 in absence of IPTG; assay type: functional, organism-based; conditions: Salmonella enterica subsp. enterica serovar Typhimurium
# Serratia marcescens [11] = experiment: Antibacterial activity against Serratia marcescens ATCC 13880 in presence of DM1 at pH 7.2; assay type: functional; conditions: subsp. marcescens ATCC 13880
# Salmonella typhimurium [12] = experiment: Antibacterial activity against Salmonella enterica serovar Typhimurium ATCC 14028 in presence of DM1 at pH 6.9; assay type: functional, Salmonella enterica subsp. enterica serovar Typhimurium
# Pseudomonas aeruginosa [13] = experiment: Antibacterial activity against Pseudomonas aeruginosa ATCC 27853 in presence of DM1 at pH 7.2; assay type: functional
# Cronobacter sakazakii [14] = experiment: Antibacterial activity against Cronobacter sakazakii ATCC 29544 in presence of NB2 medium at pH 7.2; assay type: functional
# Cronobacter sakazakii [15] = experiment: Antibacterial activity against Cronobacter sakazakii ATCC 29544 in presence of DM1 and glucose at pH 7.2; assay type: functional
# Salmonella typhimurium [16] = experiment: Antibacterial activity against Salmonella enterica serovar Typhimurium ATCC 14028 in presence of DM1 and glucose at pH 7.2; assay type: functional, Salmonella enterica subsp. enterica serovar Typhimurium
# [17] = Antibacterial activity against Salmonella enterica serovar Virchow ATCC 5742 in presence of DM1 at pH 6.9; assay type: functional, Salmonella enterica subsp. enterica serovar Virchow
# Proteus mirabilis [18] = experiment: Antibacterial activity against Proteus mirabilis ATCC 14253 in presence of NB2 medium at pH 7.2; assay type: functional
# Serratia marcescens [19] = experiment: Antibacterial activity against Serratia marcescens ATCC 13880 in presence of DM1 and glucose at pH 7.2; assay type: functional; conditions: subsp. marcescens ATCC 13880
# Klebsiella aerogenes [20] = experiment: Antibacterial activity against Enterobacter aerogenes ATCC 13048 in presence of NB2 medium at pH 7.2; assay type: functional
# Salmonella typhimurium [21] = experiment: Antibacterial activity against Salmonella enterica serovar Typhimurium ATCC 14028 in presence of DM1 at pH 7.2; assay type: functional, Salmonella enterica subsp. enterica serovar Typhimurium
# Proteus mirabilis [22] = experiment: Antibacterial activity against Proteus mirabilis ATCC 14253 in presence of DM1 and glucose at pH 7.2; assay type: functional
# Klebsiella pneumoniae [23] = experiment: Antibacterial activity against Klebsiella pneumoniae ATCC 13882 in presence of DM1 and glucose at pH 7.2; assay type: functional
# Pseudomonas aeruginosa [24] = experiment: Antibacterial activity against Pseudomonas aeruginosa ATCC 27853 in presence of DM1 at pH 6.9; assay type: functional
# Salmonella typhimurium [25] = experiment: Antibacterial activity against Salmonella enterica serovar Typhimurium ATCC 14028 in presence of NB2 medium at pH 7.2; assay type: functional, Salmonella enterica subsp. enterica serovar Typhimurium
# Klebsiella pneumoniae [26] = experiment: Antibacterial activity against Klebsiella pneumoniae ATCC 13882 in presence of DM1 at pH 7.2; assay type: functional
# [27] = Antibacterial activity against Salmonella enterica serovar Virchow ATCC 5742 in presence of DM1 at pH 7.2; assay type: functional, Salmonella enterica subsp. enterica serovar Virchow
# Klebsiella pneumoniae [28] = experiment: Antibacterial activity against Klebsiella pneumoniae ATCC 13882 in presence of DM1 at pH 6.9; assay type: functional
# Pseudomonas aeruginosa [29] = experiment: Antibacterial activity against Pseudomonas aeruginosa ATCC 27853 in presence of DM1 and glucose at pH 7.2; assay type: functional
# Serratia marcescens [30] = experiment: Antibacterial activity against Serratia marcescens ATCC 13880 in presence of NB2 medium at pH 7.2; assay type: functional; conditions: subsp. marcescens ATCC 13880
# [31] = Antibacterial activity against Salmonella enterica serovar Virchow ATCC 5742 in presence of DM1 and glucose at pH 7.2; assay type: functional, Salmonella enterica subsp. enterica serovar Virchow
# [32] = Antibacterial activity against Salmonella enterica serovar Virchow ATCC 5742 in presence of NB2 medium at pH 7.2; assay type: functional, Salmonella enterica subsp. enterica serovar Virchow
# Klebsiella pneumoniae [33] = experiment: Antibacterial activity against Klebsiella pneumoniae ATCC 13882 in presence of NB2 medium at pH 7.2; assay type: functional
# Proteus mirabilis [34] = experiment: Antibacterial activity against Proteus mirabilis ATCC 14253 in presence of DM1 at pH 6.9; assay type: functional
# Cronobacter sakazakii [35] = experiment: Antibacterial activity against Cronobacter sakazakii ATCC 29544 in presence of DM1 at pH 7.2; assay type: functional
# Cronobacter sakazakii [36] = experiment: Antibacterial activity against Cronobacter sakazakii ATCC 29544 in presence of DM1 at pH 6.9; assay type: functional
# Klebsiella aerogenes [37] = experiment: Antibacterial activity against Enterobacter aerogenes ATCC 13048 in presence of DM1 and glucose at pH 7.2; assay type: functional
# Serratia marcescens [38] = experiment: Antibacterial activity against Serratia marcescens ATCC 13880 in presence of DM1 at pH 6.9; assay type: functional; conditions: subsp. marcescens ATCC 13880
# Klebsiella aerogenes [39] = experiment: Antibacterial activity against Enterobacter aerogenes ATCC 13048 in presence of DM1 at pH 7.2; assay type: functional
# Pseudomonas aeruginosa [40] = experiment: Antibacterial activity against Pseudomonas aeruginosa ATCC 27853 in presence of NB2 medium at pH 7.2; assay type: functional
# Klebsiella aerogenes [41] = experiment: Antibacterial activity against Enterobacter aerogenes ATCC 13048 in presence of DM1 at pH 6.9; assay type: functional
# Proteus mirabilis [42] = experiment: Antibacterial activity against Proteus mirabilis ATCC 14253 in presence of DM1 at pH 7.2; assay type: functional
smiles,measurement,setting,value
C[C@H](NC(=O)O[C@@H]1O[C@H](CO)[C@H](O)[C@H](O)[C@H]1O)P(=O)(O)O,Activity,[1],inactive
same,Activity,Klebsiella aerogenes [2],inactive
same,Activity,Salmonella typhimurium [3],inactive
same,Activity,Cronobacter sakazakii [4],inactive
same,Activity,Klebsiella pneumoniae [5],inactive
same,Activity,Cronobacter sakazakii [6],Active
same,Activity,Klebsiella pneumoniae [7],Active
same,Activity,Klebsiella aerogenes [8],inactive
same,Activity,[9],inactive
same,Activity,Salmonella typhimurium [10],inactive
C[C@H](NC(=O)O[C@@H]1O[C@H](CO)[C@@H](O)[C@H](O)[C@H]1O)P(=O)(O)O,MIC,Serratia marcescens [11],1 µg/mL
same,MIC,Salmonella typhimurium [12],> 1 µg/mL
same,MIC,Pseudomonas aeruginosa [13],< 0.75 µg/mL
same,MIC,Cronobacter sakazakii [14],1 µg/mL
same,MIC,Cronobacter sakazakii [15],< 0.75 µg/mL
same,MIC,Salmonella typhimurium [16],> 1 µg/mL
same,MIC,[17],> 1 µg/mL
same,MIC,Proteus mirabilis [18],> 1 µg/mL
same,MIC,Serratia marcescens [19],1 µg/mL
same,MIC,Klebsiella aerogenes [20],> 1 µg/mL
same,MIC,Salmonella typhimurium [21],> 1 µg/mL
same,MIC,Proteus mirabilis [22],> 1 µg/mL
same,MIC,Klebsiella pneumoniae [23],1 µg/mL
same,MIC,Pseudomonas aeruginosa [24],< 0.75 µg/mL
same,MIC,Salmonella typhimurium [25],> 1 µg/mL
same,MIC,Klebsiella pneumoniae [26],> 1 µg/mL
same,MIC,[27],> 1 µg/mL
same,MIC,Klebsiella pneumoniae [28],> 1 µg/mL
same,MIC,Pseudomonas aeruginosa [29],1 µg/mL
same,MIC,Serratia marcescens [30],> 1 µg/mL
same,MIC,[31],> 1 µg/mL
same,MIC,[32],> 1 µg/mL
same,MIC,Klebsiella pneumoniae [33],> 1 µg/mL
same,MIC,Proteus mirabilis [34],> 1 µg/mL
same,MIC,Cronobacter sakazakii [35],< 0.75 µg/mL
same,MIC,Cronobacter sakazakii [36],< 0.75 µg/mL
same,MIC,Klebsiella aerogenes [37],1 µg/mL
same,MIC,Serratia marcescens [38],< 0.75 µg/mL
same,MIC,Klebsiella aerogenes [39],> 1 µg/mL
same,MIC,Pseudomonas aeruginosa [40],1 µg/mL
same,MIC,Klebsiella aerogenes [41],< 0.75 µg/mL
same,MIC,Proteus mirabilis [42],> 1 µg/mL
